Experimental data taken from patent US20050054629A1, “Compounds and methods of treating cell proliferative diseases” (priority 2002, published 2005).
pIC50: −log10 of the molar value.

Legend:
[1] = test system: NIH3T3 cells; experiment: Colony formation assay with constitutively activated Ras (RasV12) and Rac (RacV12); format: cell-based, mouse; design: key to Colony formation: −: no effect of the compound was observed; +: an effect of the compound was observed
Protocol: (§1) The impact of the compounds on Ras and Rac signaling pathways was analysed with two reporter systems described by Imler (Nature 1988) and Lin (Science, 1995) respectively on one hand, and by a colony formation assay in the presence of constitutively activated Ras (RasV12) and Rac (RacV12) on the other hand. For this latter experiment, fifty percent confluent NIH3T3 cells in a 10 cm diameter petri dish were transfected with 0.5 μg pSV2-RasV12 or 0.5 μg pEXV RacV12 plasmids plus 100 ng of pSV2-neomycin plasmid using Lipofectamine-Plus reagent (Invitrogen) according to the manufacturer's instructions. Forty-eight hours later, cells were trypsinised, splitted to ⅓, and incubated in the presence of complete medium supplemented with 400 μg/ml geneticin (Invitrogen) and different doses of compound (1, 10, 17.5, 25 and 50 μM) until emerging resistant clones appear (2-3 weeks). The medium was renewed every 3 days. Colonies with a minimum of 50 cells were counted after staining with Fuschin 2%.

[2] = test system: HCT116 colon adenocarcinoma; experiment: Cytotoxicity assay (MTT), 6 days; format: cell-based, human; conditions: Homo sapiens, HCT-116, 144 h, 6 days of treatment, read-out: Toxicity 6d (IC 50, μM) HCT116
Outline: (§2)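 Six-day continuous treatment (0–50 μM; final DMSO 1%), then MTT (0.5 mg/ml, 3 h, 37° C) with DMSO-dissolved formazan read at 550 nm. Surviving fraction and IC50 determined.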

[3] = test system: H460 lung carcinoma; experiment: Cytotoxicity assay (MTT), 6 days; format: cell-based; conditions: Homo sapiens, NCI-H460, 144 h, 6 days of treatment, read-out: Toxicity 6d (IC 50, μM) H460
Outline: as §2

[4] = test system: MRC-5; experiment: Cytotoxicity assay (MTT), 6 days; format: cell-based; conditions: Homo sapiens, MRC5, 144 h, 6 days of treatment, read-out: Toxicity 6d (IC 50, μM) MRC-5
Outline: as §2

[5] = test system: NIH3T3 mouse fibroblasts; experiment: Cytotoxicity assay (MTT), 6 days; format: cell-based; conditions: NIH3T3, 144 h, 6 days of treatment, read-out: Toxicity 6d (IC 50, μM) NIH3T3
Outline: as §2

[6] = test system: MCF-7 breast carcinoma; experiment: Cytotoxicity assay (MTT), 6 days; format: cell-based; conditions: Homo sapiens, MCF7, 144 h, 6 days of treatment, read-out: Toxicity 6d (IC 50, μM) MCF7
Outline: as §2

[7] = test system: MDA-MB-231 breast carcinoma; experiment: Cytotoxicity assay (MTT), 6 days; format: cell-based; conditions: Homo sapiens, MDA-MB-231, 144 h, 6 days of treatment, read-out: Toxicity 6d (IC 50, μM) MDA231
Outline: as §2

[8] = test system: MCF10-A; experiment: Cytotoxicity assay (MTT), 6 days; format: cell-based; conditions: Homo sapiens, MCF-10A, 144 h, 6 days of treatment, read-out: Toxicity 6d (IC 50, μM) MCF10-A
Outline: as §2

[9] = test system: MDA-MB-231 cells; experiment: Migration assay (Boyden chamber, non-coated filters); format: cell-based, human; conditions: MDA-MB-231, Boyden chamber
Protocol: One day after seeding, 10^6 MDA-MB-231 cells were treated overnight with different concentrations of compounds (1, 10, 17.5, 25 and 50 μM). Cells were collected with Versene (Invitrogen), counted with trypan blue exclusion, rinsed twice in serum-free medium containing 0.1% BSA and resuspended in serum-free medium containing 0.1% BSA plus the appropriate concentration of compound. 10^5 treated cells were placed in the upper chamber. Medium containing 10% of FBS plus the appropriate concentration of compound was placed in the lower chamber as a chemoattractant. The Boyden chamber was incubated 6 hours at 37° C. before the cells were fixed and stained with Diff-Quick (Dade-Berhing). Cells on the upper part of the filters were removed using a cotton swab. Cells on the underside of the filters were visualised and counted under light microscope.
The migration assay was performed the same way, using non-coated filters.

[10] = test system: cell architecture; experiment: Cell architecture modification, phase contrast; format: cell-based; design: key: −: no effect of the compound was observed; +: an effect of the compound was observed
[11] = test system: MDA-MB-231 cells; experiment: Matrigel invasion assay (Boyden chamber); format: cell-based, human
Outline: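 MDA-MB-231 cells were pretreated overnight with compound (1, 10, 17.5, 25, 50 μM). 10^5 cells in serum-free 0.1% BSA medium with compound were placed on 8 μm membranes coated with Matrigel (125 μg/cm^2), with 10% FBS plus compound below. After 6 h at 37 °C, cells on the filter underside were Diff-Quick stained and counted.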

[12] = test system: Ras; experiment: Ras-dependant signaling pathway analysis (reporter system); format: cell-based; design: key: −: no effect of the compound was observed; +: an effect of the compound was observed
Protocol: as §1

[13] = test system: HCT116 cells; experiment: Anchorage-independent growth assay (soft agar / Matrigel); format: cell-based, human; conditions: Homo sapiens, HCT-116, 168 h; HCT116, 3-dimensional growth, 1 week
Protocol: In order to evaluate the effect of the compounds on the capacity of tumor cells to grow without anchorage, HCT116 cells were seeded either in agar or in Matrigel (BD, France). For 3D growth experiment in soft agar in 24-well plates, 5.10^3 HCT116 cells were resuspended in 250 μl of complete medium containing 0.3% soft-agar (Difco) and different concentrations of compound (0.1, 1, 10, 17.5, 25 and 50 μM). Cells were then poured on a solidified layer of medium containing 0.5% of soft-agar plus the compound at the same concentration than in the upper layer. Cells were incubated at 37° C. for 1 week before they were analysed using a phase contrast microscope (Nikon). For 3D growth experiment in Matrigel, 10^4 HCT116 cells were resuspended in 300 μl of complete medium containing 5 mg/ml Matrigel (BD, France) and different concentrations of compound (0.1, 1, 10, 17.5, 25 and 50 μM), and poured in 24-well plates. After solidification at 37° C. for 15 min., complete medium containing the compound was added to each well. Cells were incubated for 1 week before they were collected using Matrisperse (BD, France) according to the manufacturer's instructions. After recovery, alive cells were counted with trypan blue exclusion.

[14] = test system: NIH3T3; experiment: Cytoskeleton analysis, actin staining (FITC-phalloidin); format: cell-based, mouse
Protocol: (§3) Since major rearrangements of cytoskeleton are observed in tumor cells and since the small GTPases are known to regulate these events, analysis of actin cytoskeleton was performed. Subconfluent cells seeded onto coverslips were treated with different concentration of compound (1, 10, 17.5, 25 and 50 μM) or vehicle for 24 h, before being fixed in 4% formaldehyde for 15 min., permeabilized in 0.2% Triton X100 for 5 minutes and incubated in PowerBlock (Biogenex) for 10 min. Actin filaments were stained with 0.5 μg/ml fluorescein isothiocyanate (FITC)-labelled phalloidin for 1 hour. Analysis was performed using an inverted fluorescent microscope.

[15] = test system: H460; experiment: as above; format: cell-based, human; conditions: 24 h treatment
Protocol: as §3

[16] = test system: HCT116; experiment: as above; format: cell-based, human; conditions: 24 h treatment
Protocol: as §3

pIC50 [13]: 5.30 to 6.00
Structure (SMILES): CCCc1ccccc1OCCCCCOc1coc(CO)cc1=O [EH18900, 5-[5-(2-Propylphenyloxy)pentyloxy]-2-(hydroxymethyl)-4H-pyran-4-one]
Colony formation [1]: +
Ras-dependent neoR clones formation ([1]; NIH3T3 transfected with RasVal12): inhibited
IC50 [2]: 35 µM
IC50 [3]: 40 µM
IC50 [4]: 17.5 µM
IC50 [5]: 0.5 µM
IC50 [6]: 30 µM
IC50 [7]: > 50 µM
IC50 [8]: 50 µM
Migration [9]: no effect
Cell architecture modification phase contrast [10]: +
concentration giving an increase in invasive properties of MDA-MB-231 cells [11]: 50 µM
Invasion ([11]; MDA-MB-231, Boyden chamber, matrigel): Increase
Small GTPases activities Ras [12]: −
Cell architecture modification actin staining (R: ruffles; FC: focal complexes) NIH3T3 ([14]; 24 h treatment): R-, FC+
concentration at which specific inhibition of membrane ruffles and increase in the number of stress fibers was observed ([14]; NIH3T3, actin staining): 10 µM
Cell architecture modification actin staining H460 [15]: cell spreading
Cell architecture modification actin staining HCT116 [16]: cell spreading
